Reference: patent US20240002391A1, “4-ALKOXYPYRROLO[2,1-F][1,2,4]TRIAZINES AND PREPARATION AND USES THEREOF” (BioSplice Therapeutics, Inc., priority 2022, published 2024)

Target: recombinant DYRK1A kinase (Homo sapiens (Human), UniProt Q13627)
Assay: DYRK1A kinase assay (Ser/Thr 18 peptide Z-lyte FRET)
Assay type: biochemical
Details: DYRK1A kinase activity, Z-lyte Ser/Thr 18 peptide, 15 μM ATP; method text calls the value IC50; read-out: EC50 (the source's name)
In short: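 Kinase 0.25 μg/mL + ATP 15 μM + Ser/Thr 18 peptide 4 μM, 1 h RT with cpd (10 μM top, 1:3, 11 pts, n=2). Dev. reagent A 1 h RT. Ex 400, Em 455/520 ratio → % phos. → IC50, nonlinear fit.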

Compound | IC50 [nM]
COc1nc(N[C@H]2C[C@@H](OCCO)C2)nn2ccc(-c3ccc4nnn(C)c4c3)c12 [Compound 201, 2-(cis-3-((4-Methoxy-5-(1-methyl-1H-benzo[d][1,2,3]triazol-6-yl)pyrrolo[2,1-f][1,2,4]triazin-2-yl)amino)cyclobutoxy)ethan-1-ol] | 2
COc1nc(N[C@H]2CC[C@](C)(O)CC2)nn2ccc(-c3cc(F)c4nnn(CC(F)F)c4c3)c12 [Compound 811, (1r,4r)-4-((5-(1-(2,2-Difluoroethyl)-4-fluoro-1H-benzo[d][1,2,3]triazol-6-yl)-4-methoxypyrrolo[2,1-f][1,2,4]triazin-2-yl)amino)-1-methylcyclohexan-1-ol] | 1.7
COc1nc(N[C@@H]2CCNCC2(F)F)nn2ccc(-c3cnc4nccn4c3)c12 [Compound 964, (R)—N-(3,3-Difluoropiperidin-4-yl)-5-(imidazo[1,2-a]pyrimidin-6-yl)-4-methoxypyrrolo[2,1-f][1,2,4]triazin-2-amine] | 4.3
COc1nc(N[C@@H]2CCN(C3COC3)CC2(F)F)nn2ccc(-c3ccc4nnn(CCF)c4c3)c12 [Compound 670, (R)—N-(3,3-Difluoro-1-(oxetan-3-yl)piperidin-4-yl)-5-(1-(2-fluoroethyl)-1H-benzo[d][1,2,3]triazol-6-yl)-4-methoxypyrrolo[2,1-f][1,2,4]triazin-2-amine] | 0.8
COc1nc(N[C@H]2CC[C@](C)(O)CC2)nn2ccc(-c3cc4ncccc4[nH]3)c12 [Compound 280, trans-4-((4-Methoxy-5-(1H-pyrrolo[3,2-b]pyridin-2-yl)pyrrolo[2,1-f][1,2,4]triazin-2-yl)amino)-1-methylcyclohexan-1-ol] | 33.4
[2H]C([2H])([2H])O[C@H]1CC[C@@H](Nc2nc(OC)c3c(-c4cnc5nccn5c4)ccn3n2)CC1 [Compound 245, 5-(Imidazo[1,2-a]pyrimidin-6-yl)-4-methoxy-N-(cis-4-(methoxy-d3)cyclohexyl)pyrrolo[2,1-f][1,2,4]triazin-2-amine] | 0.7
COc1nc(N[C@H]2CC[C@@H](C(F)(F)F)CC2)nn2ccc(-c3cnc4nccn4c3)c12 [Compound 239, 5-(Imidazo[1,2-a]pyrimidin-6-yl)-4-methoxy-N-(cis-4-(trifluoromethyl)cyclohexyl)pyrrolo[2,1-f][1,2,4]triazin-2-amine] | 2.9
COc1nc(NC2CCC3(CC2)COC3)nn2ccc(-c3ccc4ncnn4c3)c12 [Compound 198, 5-([1,2,4]Triazolo[1,5-a]pyridin-6-yl)-4-methoxy-N-(2-oxaspiro[3.5]nonan-7-yl)pyrrolo[2,1-f][1,2,4]triazin-2-amine] | 4.5
COc1nc(N[C@@H]2CC[C@H]2OC)nn2ccc(-c3cnc4nccn4c3)c12 [Compound 930, 5-(Imidazo[1,2-a]pyrimidin-6-yl)-4-methoxy-N-((1R,2R)-2-methoxycyclobutyl)pyrrolo[2,1-f][1,2,4]triazin-2-amine] | 6.9
COc1nc(N[C@H]2C[C@@H](OCCO)C2)nn2ccc(-c3ccc4nnn(CC(F)(F)F)c4c3)c12 [Compound 904, 2-(cis-3-((4-Methoxy-5-(1-(2,2,2-trifluoroethyl)-1H-benzo[d][1,2,3]triazol-6-yl)pyrrolo[2,1-f][1,2,4]triazin-2-yl)amino)cyclobutoxy)ethan-1-ol] | 1.8
CNC(=O)[C@]1(C)CC[C@H](Nc2nc(OC)c3c(-c4ccc5nnn(C)c5c4)ccn3n2)CC1 [Compound 225, cis-4-((4-Methoxy-5-(1-methyl-1H-benzo[d][1,2,3]triazol-6-yl)pyrrolo[2,1-f][1,2,4]triazin-2-yl)amino)-N,1-dimethylcyclohexane-1-carboxamide] | 11.7
COc1nc(N[C@H]2CC[C@@H](NC(C)=O)CC2)nn2ccc(-c3ccn4nccc4c3)c12 [Compound 17, N-(cis-4-((4-methoxy-5-(pyrazolo[1,5-a]pyridin-5-yl)pyrrolo[2,1-f][1,2,4]triazin-2-yl)amino)cyclohexyl)acetamide] | 17.5
COc1nc(N[C@H]2C[C@@](C)(N)C2)nn2ccc(-c3ccn4nccc4c3)c12 [Compound 95, cis-N1-(4-Methoxy-5-(pyrazolo[1,5-a]pyridin-5-yl)pyrrolo[2,1-f][1,2,4]triazin-2-yl)-3-methylcyclobutane-1,3-diamine] | 8.2

Second part, the compound after the results:

IC50 [nM] | Compound
0.9 | COc1nc(N[C@H]2C[C@](C)(C(=O)NC3CC(F)(F)C3)C2)nn2ccc(-c3ccc4ncccc4c3)c12 [Compound 1041, trans-N-(3,3-Difluorocyclobutyl)-3-((4-methoxy-5-(quinolin-6-yl)pyrrolo[2,1-f][1,2,4]triazin-2-yl)amino)-1-methylcyclobutane-1-carboxamide]
235 | COc1nc(N[C@H]2CC[C@](C)(O)CC2)nn2ccc(-c3cc4ccncc4[nH]3)c12 [Compound 284, trans-4-((4-Methoxy-5-(1H-pyrrolo[2,3-c]pyridin-2-yl)pyrrolo[2,1-f][1,2,4]triazin-2-yl)amino)-1-methylcyclohexan-1-ol]
7.3 | COc1nc(NC2CCC3(CC2)COC3)nn2ccc(-c3ccc4ncccc4c3)c12 [Compound 326, 4-Methoxy-5-(quinolin-6-yl)-N-(2-oxaspiro[3.5]nonan-7-yl)pyrrolo[2,1-f][1,2,4]triazin-2-amine]
22.1 | COc1nc(N[C@H]2CCNC[C@H]2F)nn2ccc(-c3ccn4nccc4c3)c12 [Compound 30, N-((3R,4S)-3-Fluoropiperidin-4-yl)-4-methoxy-5-(pyrazolo[1,5-a]pyridin-5-yl)pyrrolo[2,1-f][1,2,4]triazin-2-amine]
2.2 | COc1nc(N[C@H]2CCN(C)C[C@H]2F)nn2ccc(-c3ccc4nc(C)n(CC(F)F)c4c3)c12 [Compound 127, 5-(1-(2,2-Difluoroethyl)-2-methyl-1H-benzo[d]imidazol-6-yl)-N-((3R,4S)-3-fluoro-1-methylpiperidin-4-yl)-4-methoxypyrrolo[2,1-f][1,2,4]triazin-2-amine]
4 | COc1nc(N[C@H]2CCN(C)C[C@H]2F)nn2ccc(-c3ccc4nccnc4c3)c12 [Compound 368, N-((3R,4S)-3-Fluoro-1-methylpiperidin-4-yl)-4-methoxy-5-(quinoxalin-6-yl)pyrrolo[2,1-f][1,2,4]triazin-2-amine]
2.6 | COc1nc(N[C@H]2C[C@@](C)(NC(C)=O)C2)nn2ccc(-c3ccc4ncccc4c3)c12 [Compound 288, N-(cis-3-((4-Methoxy-5-(quinolin-6-yl)pyrrolo[2,1-f][1,2,4]triazin-2-yl)amino)-1-methylcyclobutyl)acetamide]
0.4 | COc1nc(N[C@H]2C[C@@](C)(NC(C)=O)C2)nn2ccc(-c3ccc4nnn(CC(F)(F)F)c4c3)c12 [Compound 905, N-((1s,3s)-3-((4-Methoxy-5-(1-(2,2,2-trifluoroethyl)-1H-benzo[d][1,2,3]triazol-6-yl)pyrrolo[2,1-f][1,2,4]triazin-2-yl)amino)-1-methylcyclobutyl)acetamide]
3.7 | CC[C@]1(O)CC[C@H](Nc2nc(OC)c3c(-c4ccc5ncnn5c4)ccn3n2)CC1 [Compound 567, (1r,4r)-4-((5-([1,2,4]Triazolo[1,5-a]pyridin-6-yl)-4-methoxypyrrolo[2,1-f][1,2,4]triazin-2-yl)amino)-1-ethylcyclohexan-1-ol]
1.3 | COc1nc(NCC(C)(C)C#N)nn2ccc(-c3ccc4nnn(CC(F)F)c4c3)c12 [Compound 695, 3-((5-(1-(2,2-Difluoroethyl)-1H-benzo[d][1,2,3]triazol-6-yl)-4-methoxypyrrolo[2,1-f][1,2,4]triazin-2-yl)amino)-2,2-dimethylpropanenitrile]
1.4 | COc1nc(N[C@@H]2CCN(C(C)=O)CC2(F)F)nn2ccc(-c3ccc4nnn(CC(F)(F)F)c4c3)c12 [Compound 921, (R)-1-(3,3-Difluoro-4-((4-methoxy-5-(1-(2,2,2-trifluoroethyl)-1H-benzo[d]1[1,2,3]triazol-6-yl)pyrrolo[2,1-f][1,2,4]triazin-2-yl)amino)piperidin-1-yl)ethan-1-one]
1.7 | COc1nc(N[C@H]2CCN(C)C[C@H]2F)nn2cc(F)c(-c3ccc4ncccc4c3)c12 [Compound 1057, 6-Fluoro-N-((3R,4S)-3-fluoro-1-methylpiperidin-4-yl)-4-methoxy-5-(quinolin-6-yl)pyrrolo[2,1-f][1,2,4]triazin-2-amine]
3.7 | COc1nc(N[C@@H]2CCN(C3COC3)CC2(F)F)nn2cc(F)c(-c3ccc4ncccc4c3)c12 [Compound 1062, (R)—N-(3,3-Difluoro-1-(oxetan-3-yl)piperidin-4-yl)-6-fluoro-4-methoxy-5-(quinolin-6-yl)pyrrolo[2,1-f][1,2,4]triazin-2-amine]
2.7 | COc1nc(N[C@@H]2CCN(C)CC2(F)F)nn2ccc(-c3ccc4nnn(C)c4c3)c12 [Compound 626, (R)—N-(3,3-Difluoro-1-methylpiperidin-4-yl)-4-methoxy-5-(1-methyl-1H-benzo[d][1,2,3]triazol-6-yl)pyrrolo[2,1-f][1,2,4]triazin-2-amine]
5.3 | COc1nc(NC2CCC(=O)N(C)C2)nn2ccc(-c3ccc4nnn(/C=C/F)c4c3)c12 (stereo not drawn) [Compound 673, (E)-5-((5-(1-(2-Fluorovinyl)-1H-benzo[d][1,2,3]triazol-6-yl)-4-methoxypyrrolo[2,1-f][1,2,4]triazin-2-yl)amino)-1-methylpiperidin-2-one]
33.7 | COCCO[C@H]1CC[C@@H](Nc2nc(OC)c3c(-c4ccn5nccc5c4)ccn3n2)CC1 [Compound 15, 4-Methoxy-N-(cis-4-(2-methoxyethoxy)cyclohexyl)-5-(pyrazolo[1,5-a]pyridin-5-yl)pyrrolo[2,1-f][1,2,4]triazin-2-amine]
4.5 | C[C@]1(O)CC[C@H](Nc2nc(OC3COC3)c3c(-c4ccc5ncccc5c4)ccn3n2)CC1 [Compound 1089, (1r,4r)-1-Methyl-4-((4-(oxetan-3-yloxy)-5-(quinolin-6-yl)pyrrolo[2,1-f][1,2,4]triazin-2-yl)amino)cyclohexan-1-ol]
